Reference: EP2951180B1, “2,6,7,8 SUBSTITUTED PURINES AS HDM2 INHIBITORS” (Merck Sharp & Dohme Corp., priority 2013, dated 2014)

target: T1, HDM2 (Homo sapiens, UniProt Q00987); assay: HDM2 FRET assay (inhibition of binding of FITC labeled p53-pocket peptide to HDM2); conditions: 0.5 nM HDM2 (residues 17 to 125), 3nM peptide, two hour incubation at room temperature; read-out: FRET IC50
T1 construct: Thioredoxin (N); made in house; host or cells: E. coli strain BL21(DE3)Rosetta
Method in brief: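 Final: 0.5 nM His-HDM2, 3 nM FITC peptide, 0.25 nM Tb anti-His Ab; PBS, 0.01% BSA, 0.01% Tween-20; 0.1% DMSO.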

T1 sequence (Q00987 17-125): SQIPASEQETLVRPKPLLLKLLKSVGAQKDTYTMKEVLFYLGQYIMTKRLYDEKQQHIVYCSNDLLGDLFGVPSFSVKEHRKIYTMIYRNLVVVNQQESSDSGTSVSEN

With C[C@H]1CC[C@H](Cn2c(N3CCOC[C@H]3CF)nc3nc(-c4noc(=O)[nH]4)nc(-c4cccc(Cl)c4)c32)CC1 [Example 16.137, 3-{6-(3-chlorophenyl)-8-[(3S)-3-(fluoromethyl)morpholin-4-yl]-7-[(trans-4-methylcyclohexyl)methyl]-7H-purin-2-yl}-1,2,4-oxadiazol-5(4H)-one] as the molecule, how does the IC50 read?
The IC50 was 11.9 nM.

How did the IC50 turn out when Cc1nnc([C@@H]2COCCN2c2nc3nc(-c4noc(=O)[nH]4)nc(-c4cccc(Cl)c4)c3n2C[C@H]2CC[C@H](C)CC2)o1 [Example 16.138, 3-{6-(3-chlorophenyl)-7-[(trans-4-methylcyclohexyl)methyl]-8-[(3S)-3-(5-methyl-1,3,4-oxadiazol-2-yl)morpholin-4-yl]-7H-purin-2-yl}-1,2,4-oxadiazol-5(4H)-one] was run?
The IC50 was 79.1 nM.

With C[C@H]1CC[C@H](Cn2c(N3CCOC[C@H]3CF)nc3nc(-c4n[nH]c(=O)o4)nc(-c4cncc(Cl)c4)c32)CC1 [Example 16.139, 5-{6-(5-chloropyridin-3-yl)-8-[(3S)-3-(fluoromethyl)morpholin-4-yl]-7-[(trans-4-methylcyclohexyl)methyl]-7H-purin-2-yl}-1,3,4-oxadiazol-2(3H)-one] as the molecule, how does the IC50 read?
The IC50 was 37.1 nM.

Which IC50 does the source give for C[C@@H]1[C@@H](C)OCCN1c1nc2nc(-c3n[nH]c(=O)o3)nc(-c3cncc(Cl)c3)c2n1C[C@H]1CC[C@H](C)CC1 [Example 16.140, 5-{6-(5-chloropyridin-3-yl)-8-[(2R,3R)-2,3-dimethylmorpholin-4-yl]-7-[(trans-4-methylcyclohexyl)methyl]-7H-purin-2-yl}-1,3,4-oxadiazol-2(3H)-one] here?
Its IC50 is 9.45 nM.

C[C@H]1OCCN(c2nc3nc(-c4n[nH]c(=O)o4)nc(-c4cccc(Cl)c4)c3n2C[C@H]2CC[C@H](C)CC2)[C@@H]1c1ccccc1 [Example 16.142, 5-{6-(3-chlorophenyl)-7-[(trans-4-methylcyclohexyl)methyl]-8-[(2R,3R)-2-methyl-3-phenylmorpholin-4-yl]-7H-purin-2-yl} - 1,3,4-oxadiazol-2(3H)-one] was tested. Which IC50 did it give?
The IC50 was 1.5 nM.

With C[C@H]1CC[C@H](Cn2c(N3CCOCC34CCC4)nc3nc(-c4noc(=O)[nH]4)nc(-c4cncc(Cl)c4)c32)CC1 [Example 16.144, 3-[6-(5-chloropyridin-3-yl)-7-[(trans-4-methylcyclohexyl)methyl]-8-(8-oxa-5-azaspiro[3.5]non-5-yl)-7H-purin-2-yl]-1,2,4-oxadiazol-5(4H)-one] as the molecule, how does the IC50 read?
The IC50 was 19.1 nM.

C[C@@H]1COC[C@@H](C)N1c1nc2nc(-c3n[nH]c(=O)o3)nc(-c3cccc(Cl)c3)c2n1C[C@H]1CC[C@H](C)CC1 [Example 16.147, 5-{6-(3-chlorophenyl)-8-[(3R,5R)-3,5-dimethylmorpholin-4-yl]-7-[(trans-4-methylcyclohexyl)methyl]-7H-purin-2-yl}-1,3,4-oxadiazol-2(3H)-one] was tested. Which IC50 did it give?
The IC50 was 5.52 nM.

With CN(C)C(=O)[C@@H]1CCCN1c1nc2nc(-c3noc(=O)[nH]3)nc(-c3cccc(Cl)c3)c2n1C[C@H]1CC[C@H](C)CC1 [Example 16.148, 1-[6-(3-chlorophenyl)-7-[(trans-4-methylcyclohexyl)methyl]-2-(5-oxo-4,5-dihydro-1,2,4-oxadiazol-3-yl)-7H-purin-8-yl]-N,N-dimethyl-L-prolinamide] as the molecule, how does the IC50 read?
The IC50 was 15.1 nM.

With COC[C@@H]1CC[C@@H](COC)N1c1nc2nc(-c3noc(=O)[nH]3)nc(-c3cccc(Cl)c3)c2n1C[C@H]1CC[C@H](C)CC1 [Example 16.149, 3-{8-[(2S,5S)-2,5-bis(methoxymethyl)pyrrolidin-1-yl]-6-(3-chlorophenyl)-7-[(trans-4-methylcyclohexyl)methyl]-7H-purin-2-yl}-1,2,4-oxadiazol-5(4H)-one] as the molecule, how does the IC50 read?
Its IC50 is 3.77 nM.

How did the IC50 turn out when CC[C@@H]1[C@@H](C)OCCN1c1nc2nc(-c3noc(=O)[nH]3)nc(-c3cncc(Cl)c3)c2n1C[C@H]1CC[C@H](C)CC1 [Example 16.152, 3-{6-(5-chloropyridin-3-yl)-8-[(2R,3R)-3-ethyl-2-methylmorpholin-4-yl]-7-[(trans-4-methylcyclohexyl)methyl]-7H-purin-2-yl}-1,2,4-oxadiazol-5(4H)-one] was run?
Its IC50 is 5.68 nM.

With CC[C@@H]1[C@@H](C)OCCN1c1nc2nc(-c3n[nH]c(=O)o3)nc(-c3cncc(Cl)c3)c2n1C[C@H]1CC[C@H](C)CC1 [Example 16.153, 5-{6-(5-chloropyridin-3-yl)-8-[(2R,3R)-3-ethyl-2-methylmorpholin-4-yl]-7-[(trans-4-methylcyclohexyl)methyl]-7H-purin-2-yl}-1,3,4-oxadiazol-2(3H)-one] as the molecule, how does the IC50 read?
Its IC50 is 10 nM.

Which IC50 does the source give for COc1ncc(Cl)cc1-c1nc(-c2noc(=O)[nH]2)nc2nc(N3CCOC[C@H]3c3ccccc3)n(C[C@H]3CC[C@H](C)CC3)c12 [Example 16.156, 3-{6-(5-chloro-2-methoxypyridin-3-yl)-7-[(trans-4-methylcyclohexyl)methyl]-8-[(3R)-3-phenylmorpholin-4-yl]-7H-purin-2-yl}-1,2,4-oxadiazol-5(4H)-one] here?
The IC50 was 0.851 nM.

Which IC50 does the source give for COc1ncc(Cl)cc1-c1nc(-c2n[nH]c(=O)o2)nc2nc(N3CCOC[C@H]3c3ccccc3)n(C[C@H]3CC[C@H](C)CC3)c12 [Example 16.157, 5-{6-(5-chloro-2-methoxypyridin-3-yl)-7-[(trans-4-methylcyclohexyl)methyl]-8-[(3R)-3-phenylmorpholin-4-yl]-7H-purin-2-yl} - 1,3,4-oxadiazol-2(3H)-one] here?
The IC50 was 0.882 nM.

With Cc1ncc(Cl)cc1-c1nc(-c2noc(=O)[nH]2)nc2nc(N3CCOC[C@H]3c3ccccc3)n(C[C@H]3CC[C@H](C)CC3)c12 [Example 16.158, 3-{6-(5-chloro-2-methylpyridin-3-yl)-7-[(trans-4-methylcyclohexyl)methyl]-8-[(3R)-3-phenylmorpholin-4-yl]-7H-purin-2-yl}-1,2,4-oxadiazol-5(4H)-one] as the molecule, how does the IC50 read?
The IC50 was 0.601 nM.

Which IC50 does the source give for Cc1ncc(Cl)cc1-c1nc(-c2n[nH]c(=O)o2)nc2nc(N3CCOC[C@H]3c3ccccc3)n(C[C@H]3CC[C@H](C)CC3)c12 [Example 16.159, 5-{6-(5-chloro-2-methylpyridin-3-yl)-7-[(trans-4-methylcyclohexyl)methyl]-8-[(3R)-3-phenylmorpholin-4-yl]-7H -purin-2-yl}-1,3,4-oxadiazol-2(3H)-one] here?
The IC50 was 0.704 nM.

Which IC50 does the source give for C[C@H]1CC[C@H](Cn2c(N3CCOC[C@H]3c3ccccc3)nc3nc(-c4noc(=O)[nH]4)nc(-c4cc(Cl)cnc4OCc4ccccc4)c32)CC1 [Example 16.161, 3-{6-[2-(benzyloxy)-5-chloropyridin-3-yl]-7-[(trans-4-methylcyclohexyl)methyl]-8-[(3R)-3-phenylmorpholin-4-yl]-7H-purin-2-yl}-1,2,4-oxadiazol-5(4H)-one] here?
Its IC50 is 3.65 nM.

How did the IC50 turn out when C[C@H]1CC[C@H](Cn2c(N3CCOC[C@H]3c3ccccc3)nc3nc(-c4noc(=O)[nH]4)nc(-c4cc(Cl)cnc4O)c32)CC1 [Example 16.162, 3-{6-(5-chloro-2-hydroxypyridin-3-yl)-7-[(trans-4-methylcyclohexyl)methyl]-8-[(3R)-3-phenylmorpholin-4-yl]-7H-purin-2-yl}-1,2,4-oxadiazol-5(4H)-one] was run?
Its IC50 is 0.847 nM.

For C[C@H]1CC[C@H](Cn2c(N3CCOC[C@H]3c3ccccc3)nc3nc(-c4n[nH]c(=O)o4)nc(-c4cc(Cl)cnc4O)c32)CC1 [Example 16.163, 5-{6-(5-chloro-2-hydroxypyridin-3-yl)-7-[(trans-4-methylcyclohexyl)methyl]-8-[(3R)-3-phenylmorpholin-4-yl]-7H-purin-2-yl} -1,3,4-oxadiazol-2(3H)-one], which IC50 is on record?
The IC50 was 1.23 nM.

C[C@H]1CC[C@H](Cn2c(N3CCOC[C@H]3c3ccccc3)nc3nc(-c4noc(=O)[nH]4)nc(C4CCCCC4)c32)CC1 [Example 16.165, 3-{6-cyclohexyl-7-[(trans-4-methylcyclohexyl)methyl]-8-[(3R)-3-phenylmorpholin-4-yl]-7H-purin-2-yl}-1,2,4-oxadiazol-5(4H)-one] was tested. Which IC50 did it give?
Its IC50 is 5.08 nM.

Which IC50 does the source give for C[C@H]1CC[C@H](Cn2c(N3CCOC[C@H]3c3ccccc3)nc3nc(-c4n[nH]c(=O)o4)nc(C4CCCCC4)c32)CC1 [Example 16.166, 5-{6-cyclohexyl-7-[(trans-4-methylcyclohexyl)methyl]-8-[(3R)-3-phenylmorpholin-4-yl]-7H -purin-2-yl}-1,3,4-oxadiazol-2(3H)-one] here?
Its IC50 is 9.22 nM.

C[C@H]1CC[C@H](Cn2c(N3CCOC[C@H]3c3ccccc3)nc3nc(-c4noc(=O)[nH]4)nc(C4CCOCC4)c32)CC1 [Example 16.167, 3-{7-[(trans-4-methylcyclohexyl)methyl]-8-[(3R)-3-phenylmorpholin-4-yl]-6-(tetrahydro-2H-pyran-4-yl)-7H-purin-2-yl}-1,2,4-oxadiazol-5(4H)-one] was tested. Which IC50 did it give?
Its IC50 is 46.6 nM.

With C[C@H]1CC[C@H](Cn2c(N3CCOC[C@H]3c3ccccc3)nc3nc(-c4n[nH]c(=O)o4)nc(C4CCOCC4)c32)CC1 [Example 16.168, 5-{7-[(trans-4-methylcyclohexyl)methyl]-8-[(3R)-3-phenylmorpholin-4-yl]-6-(tetrahydro-2H-pyran-4-yl)-7H-purin-2-yl} -1,3,4-oxadiazol-2(3H)-one] as the molecule, how does the IC50 read?
Its IC50 is 67.1 nM.

With CC1CCCC(c2nc(-c3noc(=O)[nH]3)nc3nc(N4CCOC[C@H]4c4ccccc4)n(C[C@H]4CC[C@H](C)CC4)c23)C1 (stereo partly drawn) [Example 16.169, 3-{6-(3-methylcyclohexyl)-7-[(trans-4-methylcyclohexyl)methyl]-8-[(3R)-3-phenylmorpholin-4-yl]-7H -purin-2-yl}-1,2,4-oxadiazol-5(4H)-one] as the molecule, how does the IC50 read?
Its IC50 is 2.53 nM.

For CC1CCCC(c2nc(-c3n[nH]c(=O)o3)nc3nc(N4CCOC[C@H]4c4ccccc4)n(C[C@H]4CC[C@H](C)CC4)c23)C1 (stereo partly drawn) [Example 16.170, 5-{6-(3-methylcyclohexyl)-7-[(trans-4-methylcyclohexyl)methyl]-8-[(3R)-3-phenylmorpholin-4-yl]-7H-purin-2-yl} - 1,3,4-oxadiazol-2(3H)-one], which IC50 is on record?
The IC50 was 8.3 nM.

How did the IC50 turn out when CCOc1nc(C(=O)O)nc2nc(-c3cccc(C)c3)n(Cc3ccc(C(F)(F)F)cc3)c12 [Example 17.1, 6-ethoxy-8-(3-methylphenyl)-7-[4-(trifluoromethyl)benzyl]-7H-purine-2-carboxylic acid] was run?
Its IC50 is 5900 nM.
